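Step 1: Grow cells in 96-well plates. Step 2: Expose to compound for 48 hours at 5 concentrations. Step 3: Interpolate endpoints linearly; if unreached, use highest concentration. Definition used: TGI = concentration required for complete inhibition of growth.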
How the values were obtained:
Experiment in all cases: DTP human tumour cell line panel, 48 h
OVCAR-4 ovarian = test system: OVCAR-4 ovarian
NCI-H23 lung = test system: NCI-H23 lung
NCI-H226 lung = test system: NCI-H226 lung
MDA-MB-231 breast = test system: MDA-MB-231 breast
UO-31 renal = test system: UO-31 renal
MDA-MB-435 = test system: MDA-MB-435
OVCAR-3 ovarian = test system: OVCAR-3 ovarian
K-562 leukemia = test system: K-562 leukemia
EKVX NSCLC = test system: EKVX NSCLC
HS 578T breast = test system: HS 578T breast

| SMILES | TGI (OVCAR-4 ovarian) [µM] | TGI (NCI-H23 lung) [µM] | TGI (NCI-H226 lung) [µM] | TGI (MDA-MB-231 breast) [µM] | TGI (UO-31 renal) [µM] | TGI (MDA-MB-435) [µM] | TGI (OVCAR-3 ovarian) [µM] | TGI (K-562 leukemia) [µM] | TGI (EKVX NSCLC) [µM] | TGI (HS 578T breast) [µM] |
| --- | --- | --- | --- | --- | --- | --- | --- | --- | --- | --- |
| S=C(NC1=NCC(CN2CCN(c3ccccc3)CC2)O1)Nc1ccccc1 (stereo not given) | > 100 | > 100 | > 100 | > 100 | 97.5 | > 100 | > 100 | > 100 | > 100 | > 100 |
| COC(=O)CCC(=O)NC1=C(NCc2ccccc2)C(=O)c2ccccc2C1=O | 49.8 | 64.6 | > 100 | 85.7 | > 100 | 34.9 | 33.3 | > 100 | > 100 | > 100 |
| CN(CCn1cnc2c1c(=O)n(C)c(=O)n2C)C1CCCCC1 | > 100 | > 100 | > 100 | > 100 | > 100 | > 100 | > 100 | > 100 | > 100 | > 100 |
| O=C(/C=C/c1ccc(O)c(O)c1)OCCCc1ccccc1 | 20.7 | 35.3 | 34.6 | 25.2 | 14.8 | 24.6 | 6.6 | 58.9 | 63.8 | 74.5 |
| COC(=O)C(Cc1c(C2Nc3ccccc3C2CC(NC(=O)CNC(C)=O)C(=O)OC)[nH]c2ccccc12)NC(=O)CNC(C)=O (stereo not given) | > 100 | > 100 | > 100 | > 100 | > 100 | > 100 | > 100 | > 100 | > 100 | > 100 |
| Oc1ccc(-c2nc(-c3cccnc3)c(-c3ccc(Cl)cc3)[nH]2)cc1O | 51.6 | 23.9 | 37.1 | 47.8 | 26.8 | 30.3 | 14.5 | > 100 | 50.2 | 36.4 |
| Nc1nc(Cl)c(N)c(NCC2(CO)CC(OCc3ccccc3)C2)n1 (stereo not given) | > 100 | > 100 | > 100 | > 100 | > 100 | > 100 | > 100 | > 100 | > 100 | > 100 |
| C[C@]12CC[C@H]3[C@@H](CC=C4C[C@@H](N5CCCC5)CC[C@@]43C)[C@@H]1C[C@H](N1CCOCC1)[C@@H]2O | > 100 | > 100 | > 100 | > 100 | > 100 | > 100 | > 100 | 74.3 | > 100 | > 100 |
| COC(=O)NCCc1[nH]nc2c1C(=O)C=C(N1CCOCC1)C2=O | > 100 | > 100 | > 100 | > 100 | > 100 | > 100 | > 100 | > 100 | > 100 | > 100 |

From PubChem BioAssay (NCI)
